Data reported in publication PMC12133982, “Predominant T-cell epitopes of SARS-CoV-2 restricted by multiple prevalent HLA-B and HLA-C allotypes in Northeast Asia” (Frontiers in Immunology, 2025).
Peptide text beside a SMILES is read from it.

Experiments:
[1] = target: HLA-B3501 (Homo sapiens, UniProt P01889, A329T/A93T/A95T/C349S/D201E/D98Y/E176V/E187L/E204Q/E69T/I218V/K202T/L119I/Q94N/R155S/R180L/S121R/S35A/S48A/T118I/V127L/V306I/V36M/Y140S/Y91F); test: Competitive peptide binding assay, CIR-B3501; conditions: HMy2.CIR-B3501 cells, reference Cy5-[…], class from inhibition at 5 and 15 μM, flow cytometry MFI; read-out: Binding affinity with HLA-B3501
Procedure: (§1) Then, competitive peptide binding assays were performed.

[2] = target: HLA-B4001 (Homo sapiens, UniProt P01889, A65T/A93T/A95T/D138N/D98Y/E176V/E69K/N87E/Q56L/Q94N/R180L/S121R/S35A/S48T/T167S/V36M/W171L/Y33H/Y91S); test: Competitive peptide binding assay, CIR-B4001; conditions: HMy2.CIR-B4001 cells, reference Cy5-[…], class from inhibition at 5 and 15 μM, flow cytometry MFI; read-out: Binding affinity with HLA-B4001
Procedure: as §1

[3] = target: HLA-B1501 (Homo sapiens, UniProt P01889, A329T/A93T/A95T/C349S/D201E/D98Y/E187L/E204Q/E69M/E70A/K202T/N87E/Q94N/R155S/R180W/S121R/S35A/S48A/V306I/V36M/Y140S/Y91S); test: Competitive peptide binding assay, CIR-B1501; conditions: HMy2.CIR-B1501 cells, reference Cy5-[…], class from inhibition at 5 and 15 μM, flow cytometry MFI; read-out: Binding affinity with HLA-B1501
Procedure: as §1

[4] = target: HLA-B5801 (Homo sapiens, UniProt P01889, A329T/C349S/D201E/D98Y/E176V/E187L/E204Q/E69T/G107R/I218V/I90N/K202T/L105A/L119I/N104I/N87E/Q89R/Q94S/R106L/R155S/R180L/R86G/S101N/S121R/S35A/S48A/T118I/V127L/V306I/V36M/Y140S/Y91M); test: Competitive peptide binding assay, CIR-B5801; conditions: HMy2.CIR-B5801 cells, reference Cy5-[…], class from inhibition at 5 and 15 μM, flow cytometry MFI; read-out: Binding affinity with HLA-B5801
Procedure: as §1

[5] = target: HLA-B5101 (Homo sapiens, UniProt P01889, A329T/A93T/A95T/C349S/D138N/D201E/D98Y/E187L/E204Q/E69T/G107R/I218V/K202T/L105A/L119W/N104I/Q94N/R106L/R155S/R180L/S101N/S121T/S35A/S48A/V306I/V36M/Y195H/Y91F); test: Competitive peptide binding assay, CIR-B5101; conditions: HMy2.CIR-B5101 cells, reference Cy5-[…], class from inhibition at 5 and 15 μM, flow cytometry MFI; read-out: Binding affinity with HLA-B5101
Procedure: as §1

[6] = target: HLA-B1302 (Homo sapiens, UniProt P01889, A65T/A93T/A95T/D138N/D201E/D98Y/E176V/E204Q/E69M/E70A/G107R/K202T/L105A/L119W/N104T/N87E/Q94N/R106L/R155S/R169L/R180L/S101N/S121T/S35A/S48T/V127L/V36M/Y140L/Y91S); test: Competitive peptide binding assay, CIR-B1302; conditions: HMy2.CIR-B1302 cells, reference Cy5-MMWYWGPSL, class from inhibition at 5 and 15 μM, flow cytometry MFI; read-out: Binding affinity with HLA-B1302
Procedure: as §1

[7] = target: HLA-B4801 (Homo sapiens, UniProt P01889, A269T/A93T/A95T/D138N/D98Y/E176V/N87E/Q94N/R180L/T167S/W171L/Y91S); test: Competitive peptide binding assay, CIR-B4801; conditions: HMy2.CIR-B4801 cells, reference Cy5-[…], class from inhibition at 5 and 15 μM, flow cytometry MFI; read-out: Binding affinity with HLA-B4801
Procedure: as §1

[8] = target: HLA-B1502 (Homo sapiens, UniProt P01889, A329T/A93T/A95T/C349S/D201E/D98Y/E187L/E204Q/E69M/E70A/H137Y/K202T/L119I/Q94N/R155S/R180L/S121R/S35A/S48A/T118I/V306I/V36M/Y140S/Y91S); test: Competitive peptide binding assay, CIR-B1502; conditions: HMy2.CIR-B1502 cells, reference Cy5-[…], class from inhibition at 5 and 15 μM, flow cytometry MFI; read-out: Binding affinity with HLA-B1502
Procedure: as §1

[9] = target: HLA-B4403 (Homo sapiens, UniProt P01889, A223V/A65T/A93T/A95T/D201E/D98Y/E176V/E187L/E204Q/E69K/G107R/H137Y/K202T/L105A/L119I/N104T/N87E/Q56L/Q94N/R106L/R155S/R180L/S101N/S121R/S35A/S48T/T118I/V36M/W191S/Y140D/Y91S); test: Competitive peptide binding assay, CIR-B4403; conditions: HMy2.CIR-B4403 cells, reference Cy5-CYMEAVAL, class from inhibition at 5 and 15 μM, flow cytometry MFI; read-out: Binding affinity with HLA-B4403
Procedure: as §1

[10] = target: HLA-B4601 (Homo sapiens, UniProt P01889, A329T/A93R/C349S/D201E/E100V/E187L/E204Q/E69M/E70A/I90K/K202T/N87E/R155S/R180W/S121R/S35A/S48A/V306I/V36M/Y140S); test: Competitive peptide binding assay, CIR-B4601; conditions: HMy2.CIR-B4601 cells, reference Cy5-[…], class from inhibition at 5 and 15 μM, flow cytometry MFI; read-out: Binding affinity with HLA-B4601
Procedure: as §1

[11] = target: T1, HLA-B0702 (Homo sapiens, UniProt P01889); test: Competitive peptide binding assay, CIR-B0702; conditions: HMy2.CIR-B0702 cells, reference Cy5-[…], class from inhibition at 5 and 15 μM, flow cytometry MFI
T1 construct: expressed in transfected cells; host or cells: HMy2.CIR
Procedure: as §1

[12] = target: HLA-B1301 (Homo sapiens, UniProt P01889, A65T/A93T/A95T/D138N/D201E/D98Y/E176V/E204Q/E69M/E70A/G107R/K202T/L105A/L119I/N104T/N87E/Q94N/R106L/R155S/R169L/R180L/S101N/S121R/S35A/S48T/T118I/V127L/V36M/Y140L/Y91S); test: Competitive peptide binding assay, CIR-B1301; conditions: HMy2.CIR-B1301 cells, reference Cy5-[…], class from inhibition at 5 and 15 μM, flow cytometry MFI; read-out: Binding affinity with HLA-B1301
Procedure: as §1

Row | SMILES | IC50 [1] | IC50 [2] | IC50 [3] | IC50 [4] | IC50 [5] | IC50 [6] | IC50 [7] | IC50 [8] | IC50 [9] | IC50 [10] | IC50 [11] | IC50 [12]
1 | CC(C)C[C@H](NC(=O)[C@H](Cc1c[nH]cn1)NC(=O)[C@H](Cc1ccccc1)NC(=O)[C@@H](NC(=O)[C@H](CC(=O)O)NC(=O)[C@H](C)NC(=O)[C@H](Cc1ccc(O)cc1)NC(=O)[C@H](CCC(=O)O)NC(=O)[C@@H](N)CCC(N)=O)C(C)C)C(=O)O [Epitope Y71] (H-QEYADVFHL-OH; N-terminus and C-terminus assumed) | 5 to 15 µM | 5 to 15 µM | 5 to 15 µM | > 15 µM | > 15 µM | > 15 µM |  |  |  |  |  | 
2 | CC(C)C[C@H](N)C(=O)N[C@H](C(=O)N[C@@H](CCCCN)C(=O)N1CCC[C@H]1C(=O)N[C@@H](CO)C(=O)N[C@@H](Cc1ccccc1)C(=O)N[C@@H](Cc1ccc(O)cc1)C(=O)N[C@H](C(=O)N[C@@H](Cc1ccc(O)cc1)C(=O)O)C(C)C)C(C)C [Epitope Y125] (H-LVKPSFYVY-OH; N-terminus and C-terminus assumed) |  |  | < 5 µM | 5 to 15 µM |  | > 15 µM | > 15 µM | > 15 µM |  |  |  | 
3 | CC(C)C[C@H](NC(=O)[C@H](CCC(=O)O)NC(=O)[C@H](CCCCN)NC(=O)[C@H](Cc1ccccc1)NC(=O)[C@H](CO)NC(=O)[C@@H](N)CC(C)C)C(=O)N[C@@H](CC(C)C)C(=O)N[C@H](C(=O)N[C@@H](Cc1ccc(O)cc1)C(=O)O)C(C)C [Epitope Y142] (H-LSFKELLVY-OH; N-terminus and C-terminus assumed) | > 15 µM | > 15 µM | 5 to 15 µM | < 5 µM |  |  | > 15 µM | > 15 µM |  |  |  | 
4 | CC[C@H](C)[C@H](NC(=O)[C@H](CC(N)=O)NC(=O)[C@H](CCCCN)NC(=O)[C@H](Cc1ccccc1)NC(=O)[C@@H](NC(=O)[C@@H](N)Cc1ccccc1)C(C)C)C(=O)N[C@@H](CC(=O)O)C(=O)NCC(=O)N[C@@H](Cc1ccc(O)cc1)C(=O)O [Epitope Y172] (H-FVFKNIDGY-OH; N-terminus and C-terminus assumed) | 5 to 15 µM | > 15 µM | < 5 µM | < 5 µM | > 15 µM | > 15 µM |  | 5 to 15 µM | > 15 µM | > 15 µM | > 15 µM | > 15 µM
5 | CSCC[C@H](NC(=O)[C@H](C)NC(=O)[C@H](CCC(=O)O)NC(=O)[C@H](Cc1ccc(O)cc1)NC(=O)[C@H](Cc1ccccc1)NC(=O)[C@H](CCC(=O)O)NC(=O)[C@@H]1CCCN1C(=O)[C@H](CCC(=O)O)NC(=O)[C@@H](N)Cc1c[nH]c2ccccc12)C(=O)O [Epitope Y200] (H-WEPEFYEAM-OH; N-terminus and C-terminus assumed) | > 15 µM |  | > 15 µM | > 15 µM |  | > 15 µM | > 15 µM |  |  |  |  | > 15 µM
